Experimental data published in US20220167645A1, “METHODS OF IMPROVING FISH FEED CONVERSION RATE AND SURVIVAL” (AQUINOVO LTD., priority 2019, published 2022).
Numbered stars: 1 amine (or outer) side, 2 acyl side, 3 side chain; on linkers, the order of the positions; unused ones are H or OH. Square brackets hold non-standard residues; d marks the D form. Suc = O=C(CCC(=O)[*:2])[*:1]; NMeV = CN[C@H](C(=O)O)C(C)C; βAla = NCCC(=O)O

Tests used:
[1] = tested on: Tilapia fish; test: Experiment #3: tilapia fed AN6-coated feed, treatment schedules 1 to 8 (survival, weight, length, size distribution, FCR); format: in vivo; details: 10 mg AN6/Kg feed from 10 dph for 90 days; D279; compared to control
[2] = tested on: Tilapia fish; test: Experiment #1: tilapia fed AN6-coated feed in two phases (growth, biomass, mortality, FCR); format: in vivo; details: second phase, adult fish 195-263 dph; 50 days of 30 mg AN6/Kg feed; compared to control

## Succ-Asp-Ser- D-Trp -N(Me)Val-βAla-Leu-Met-NH2 (Suc-DS[dW][NMeV][βAla]LM-NH2; SMILES CSCC[C@H](NC(=O)[C@H](CC(C)C)NC(=O)CCNC(=O)[C@H](C(C)C)N(C)C(=O)[C@@H](Cc1c[nH]c2ccccc12)NC(=O)[C@H](CO)NC(=O)[C@H](CC(=O)O)NC(=O)CCC(=O)O)C(N)=O) [AN6]
[1]
  increase in average fish weight: +3.89%
[2]
  increase in average fish weight: +6.84%
  increase in average weight gained: +13%
